Assay results: patent US20230055705A1, “SUBSTITUTED THIOPHENE CARBOXAMIDES AND DERIVATIVES THEREOF” (Bayer Aktiengesellschaft, priority 2019, published 2023)

Tested on: Peronospora parasitica
Assay: In vivo preventive test on Peronospora parasitica (Crucifer downy mildew)
Details: Hyaloperonospora parasitica, in Brassica oleracea, 120 h, 31 ppm of active ingredient, cabbage, evaluated 5 days after inoculation, read-out: efficacy
Description: (§1) The tested active ingredients were prepared by homogenization in a mixture of acetone/Dimethyl sulfoxide/Tween®, and then diluted with water to obtain the desired active material concentration. The young plants of cabbage were treated by spraying the active ingredient prepared as described above. Control plants were treated only with an aqueous solution of acetone/Dimethyl sulfoxide/Tween®.
After 72 hours, the plants were contaminated by spraying the leaves with an aqueous suspension of Peronospora parasitica spores. The contaminated cabbage plants were incubated for 5 days at 20° C. and at 100% relative humidity.
The test was evaluated 5 days after the inoculation. 0% means an efficacy which corresponds to that of the control plants while an efficacy of 100% means that no disease was observed.
Compounds CMP2 and CMP3 were tested in an in vivo preventive test on Peronospora parasitica (Crucifer downy mildew) in the same conditions as described in Example G.

| SMILES | pest or weed control at 31 ppm |
| --- | --- |
| CCOC(=O)C(Cc1c[nH]c2ccccc12)NC(=O)c1sc(Cl)c(Cl)c1Cl (centres unmarked) [I.013] | 80 to 89% |
| N#CCNC(=O)c1sc(Cl)c(Cl)c1Cl [I.025, 3,4,5-trichloro-N-(cyanomethyl)thiophene-2-carboxamide] | 80 to 89% |

Same assay, conditions: Hyaloperonospora parasitica, in Brassica oleracea, 120 h, 125 ppm of active ingredient, cabbage, evaluated 5 days after inoculation, read-out: efficacy

| SMILES | pest or weed control at 125 ppm |
| --- | --- |
| N#CCNC(=O)c1sc(Cl)c(Cl)c1Cl [I.025, 3,4,5-trichloro-N-(cyanomethyl)thiophene-2-carboxamide] | 80 to 89% |

Same assay, conditions: Hyaloperonospora parasitica, in Brassica oleracea, 120 h, 500 ppm of active ingredient, cabbage, evaluated 5 days after inoculation, read-out: efficacy

| SMILES | pest or weed control at 500 ppm |
| --- | --- |
| CCOC(=O)C(Cc1c[nH]c2ccccc12)NC(=O)c1sc(Cl)c(Cl)c1Cl (centres unmarked) [I.013] | 90 to 100% |
| N#CCNC(=O)c1sc(Cl)c(Cl)c1Cl [I.025, 3,4,5-trichloro-N-(cyanomethyl)thiophene-2-carboxamide] | 90 to 100% |

Tested on: Pseudomonas syringae pv. tomato
Assay: Pseudomonas syringae pv. tomato in vitro cell test
Format: cell-based
Details: 20 ppm of active ingredient, 24 h incubation, read-out: efficacy (inhibition of bacteria growth)
Description: Culture medium: LB broth medium (Luria Broth Miller) Sigma
Inoculum: bacteria suspension
Compounds were solubilized in DMSO and the solution used to prepare the required range of concentrations. The final concentration of DMSO used in the assay was 1%.
(§2) Inoculum was prepared from a pre-culture of bacteria grown in liquid medium and diluted to the desired optical density (OD).
(§3) Compounds were evaluated for their ability to inhibit bacteria growth in liquid culture assay. The compounds were added in the desired concentrations to culture medium containing the bacteria suspension. After 24 h of incubation, the efficacy of compounds was determined by spectrometric measurement of bacteria growth. Inhibition was determined by comparing the absorbance values in wells containing the compounds with the absorbance in control wells without active ingredients.

| SMILES | inhibition at 20 ppm |
| --- | --- |
| CCOC(=O)C(Cc1c[nH]c2ccccc12)NC(=O)c1sc(Cl)c(Cl)c1Cl (centres unmarked) [I.013] | ≤ 30% |
| N#CCNC(=O)c1sc(Cl)c(Cl)c1Cl [I.025, 3,4,5-trichloro-N-(cyanomethyl)thiophene-2-carboxamide] | ≤ 30% |

Tested on: Xanthomonas campestris pv. campestris
Assay: In vivo preventive test on Xanthomonas campestris pv. campestris (black rot on cabbage)
Details: 31 ppm of active ingredient, evaluated 8 or 10 days after inoculation, read-out: efficacy
Description: The tested active ingredients were prepared by homogenization in a mixture of acetone/Dimethyl sulfoxide/Tween®, and then diluted with water to obtain the desired active material concentration.
The young plants of cabbage were treated by spraying the active ingredient prepared as described above. Control plants were treated only with an aqueous solution of acetone/Dimethyl sulfoxide/Tween®.
After 72 hours, the plants were contaminated by spraying the leaves with an aqueous bacteria suspension of Xanthomonas campestris pv. campestris. The contaminated cabbage plants were incubated for 8 or 10 days at 27° C. at 95% relative humidity.
The test was evaluated 8 or 10 days after the inoculation. 0% means an efficacy which corresponds to that of the control plants while an efficacy of 100% means that no disease was observed. […]
Compounds CMP1, CMP2, CMP3 and CMP4 were tested in an in vivo preventive test on Xanthomonas campestris pv. campestris (black rot on cabbage) in the same conditions as described in Example H.

| SMILES | pest or weed control at 31 ppm |
| --- | --- |
| N#CCNC(=O)c1sc(Cl)c(Cl)c1Cl [I.025, 3,4,5-trichloro-N-(cyanomethyl)thiophene-2-carboxamide] | 70 to 79% |

Same assay, conditions: 125 ppm of active ingredient, evaluated 8 or 10 days after inoculation, read-out: efficacy

| SMILES | pest or weed control at 125 ppm |
| --- | --- |
| CCOC(=O)C(Cc1c[nH]c2ccccc12)NC(=O)c1sc(Cl)c(Cl)c1Cl (centres unmarked) [I.013] | 80 to 89% |

Tested on: Xanthomonas campestris pv. campestris
Assay: Xanthomonas campestris pv. campestris in vitro cell test
Format: cell-based
Details: 20 ppm of active ingredient, 24 h incubation, read-out: efficacy (inhibition of bacteria growth)
Description: • Solvent: DMSO • Culture medium: LB broth medium (Luria Broth Miller) Sigma • Inoculum: bacteria suspension
Compounds were solubilized in DMSO and the solution used to prepare the required range of concentrations. The final concentration of DMSO used in the assay was ≤1%.
as §2, §3

| SMILES | inhibition at 20 ppm |
| --- | --- |
| CCOC(=O)C(Cc1c[nH]c2ccccc12)NC(=O)c1sc(Cl)c(Cl)c1Cl (centres unmarked) [I.013] | ≤ 30% |
| N#CCNC(=O)c1sc(Cl)c(Cl)c1Cl [I.025, 3,4,5-trichloro-N-(cyanomethyl)thiophene-2-carboxamide] | ≤ 30% |

Tested on: not listed separately
Assay: LogP by HPLC on reversed phase columns (EEC directive 79/831 Annex V.A8)
Format: physicochemical
Details: reversed phase HPLC columns, given in the preparation examples; method not marked
Description: In the above tables, measurement of LogP values was performed according to EEC directive 79/831 Annex V.A8 by HPLC (High Performance Liquid Chromatography) on reversed phase columns with the following methods: • ^[a]
Calibration was done with straight-chain alkan2-ones (with 3 to 16 carbon atoms) with known LogP values (measurement of LogP values using retention times with linear interpolation between successive alkanones). Lambda-max-values were determined using UV-spectra from 200 nm to 400 nm and the peak values of the chromatographic signals.

| SMILES | chromatographic logP |
| --- | --- |
| N#CCNC(=O)c1sc(Cl)c(Cl)c1Cl [I.025, 3,4,5-trichloro-N-(cyanomethyl)thiophene-2-carboxamide] | 2.59 |

Same assay, conditions: reversed phase HPLC columns, method [a]: LC-UV, in an acidic range, with 0.1% formic acid in water and acetonitrile as eluent (linear gradient from 10% to 95% acetonitrile)

| SMILES | chromatographic logP |
| --- | --- |
| CCOC(=O)C(Cc1c[nH]c2ccccc12)NC(=O)c1sc(Cl)c(Cl)c1Cl (centres unmarked) [I.013] | 4.44 |
| N#CCNC(=O)c1sc(Cl)c(Cl)c1Cl [I.025, 3,4,5-trichloro-N-(cyanomethyl)thiophene-2-carboxamide] | 2.64 |

Tested on: Uromyces appendiculatus
Assay: In vivo preventive test on Uromyces appendiculatus (bean rust)
Details: 240 h, 125 ppm of active ingredient, evaluated 10 days after inoculation, read-out: efficacy
Description: as §1, with “bean” for “cabbage”
(§4) After 72 hours, the plants were contaminated by spraying the leaves with an aqueous suspension of Uromyces appendiculatus spores. The contaminated bean plants were incubated for 24 hours at 20° C. and at 100% relative humidity and then for 9 days at 20° C. and at 70-80% relative humidity. The test was evaluated 10 days after the inoculation. 0% means an efficacy which corresponds to that of the control plants while an efficacy of 100% means that no disease was observed.
Compounds CMP5 and CMP6 were tested in an in vivo preventive test on Uromyces appendiculatus (bean rust) in the same conditions as described in Example I.

| SMILES | pest or weed control at 125 ppm |
| --- | --- |
| CCOC(=O)C(Cc1c[nH]c2ccccc12)NC(=O)c1sc(Cl)c(Cl)c1Cl (centres unmarked) [I.013] | 70 to 79% |

Same assay, conditions: 240 h, 500 ppm of active ingredient, evaluated 10 days after inoculation, read-out: efficacy

| SMILES | pest or weed control at 500 ppm |
| --- | --- |
| CCOC(=O)C(Cc1c[nH]c2ccccc12)NC(=O)c1sc(Cl)c(Cl)c1Cl (centres unmarked) [I.013] | 90 to 100% |

Tested on: Colletotrichum lindemuthianum
Assay: In vivo preventive test on Colletotrichum lindemuthianum (Antrachnose on bean)
Details: 144 h, 31 ppm of active ingredient, inoculation 72 h after spraying, evaluated 6 days after inoculation, read-out: efficacy
Description: as §1, with “bean” for “cabbage”
as §4, with “of Colletotrichum lindemuthianum” for “of Uromyces appendiculatus”, “for 5” for “for 9”, “at 90%” for “at 70-80%”, “evaluated 6” for “evaluated 10”
Compound CMP1 was tested in an in vivo preventive test on Colletotrichum lindemuthianum (Antrachnose on bean) in the same conditions as described in Example F.

| SMILES | pest or weed control at 31 ppm |
| --- | --- |
| N#CCNC(=O)c1sc(Cl)c(Cl)c1Cl [I.025, 3,4,5-trichloro-N-(cyanomethyl)thiophene-2-carboxamide] | 90 to 100% |

Same assay, conditions: 144 h, 500 ppm of active ingredient, inoculation 72 h after spraying, evaluated 6 days after inoculation, read-out: efficacy

| SMILES | pest or weed control at 500 ppm |
| --- | --- |
| CCOC(=O)C(Cc1c[nH]c2ccccc12)NC(=O)c1sc(Cl)c(Cl)c1Cl (centres unmarked) [I.013] | 80 to 89% |
| N#CCNC(=O)c1sc(Cl)c(Cl)c1Cl [I.025, 3,4,5-trichloro-N-(cyanomethyl)thiophene-2-carboxamide] | 90 to 100% |

Tested on: Pseudomonas syringae pv. tomato
Assay: In vivo preventive test on Pseudomonas syringae pv. tomato (bacterial speck on tomato)
Details: 500 ppm of active ingredient, evaluated 5 or 6 days after inoculation, read-out: efficacy
Description: as §1, with “tomato” for “cabbage”
After 72 hours, the plants were contaminated by spraying the leaves with an aqueous bacteria suspension of Pseudomonas syringae pv. tomato. The contaminated tomato plants were incubated for 4 days in saturated atmosphere at 22° C. day/20° C. night—70% HR and then for 1 or 2 days at 22° C. day/20° C. night at 70-80% relative humidity.
The test was evaluated 5 or 6 days after the inoculation. 0% means an efficacy which corresponds to that of the control plants while an efficacy of 100% means that no disease was observed.
Compounds CMP1 and CMP4 were tested in an in vivo preventive test on Pseudomonas syringae pv. tomato (bacterial speck on tomato) in the same conditions as described in Example J.

| SMILES | pest or weed control at 500 ppm |
| --- | --- |
| N#CCNC(=O)c1sc(Cl)c(Cl)c1Cl [I.025, 3,4,5-trichloro-N-(cyanomethyl)thiophene-2-carboxamide] | 80 to 89% |

Tested on: salicylate responsive promoter sequence of the PR1 (pathogenesis-related protein I) gene (AT2G14610)
Assay: Induction of defense gene expression in Arabidopsis thaliana (PR1 promoter-GFP reporter plants)
Format: in vivo
Details: Arabidopsis thaliana, 72 h; 75 ppm of compound; 3rd day after spraying; mock treated leaves set as 1.00; read-out: relative fluorescence value
Description: Arabidopsis thaliana reporter plants containing the coding sequence of a green fluorescent protein (GFP) linked to the salicylate responsive promoter sequence of the PR1 (pathogenesis-related protein I) gene (AT2G14610) were grown for five days and then sprayed with compounds. On the 3rd day after spraying, plant fluorescence was assessed with a MacroFluo instrument from Leica Microsystems (Wetzlar, Germany). Fluorescences were quantified with the Meta-Morph Microscopy Automation & Image Analysis Software (Molecular Devices, Sunnyvale, Calif., United States). Background fluorescence in mock treated leaves was set as 1.00.

| SMILES | fold induction at 75 ppm |
| --- | --- |
| N#CCNC(=O)c1sc(Cl)c(Cl)c1Cl [I.025, 3,4,5-trichloro-N-(cyanomethyl)thiophene-2-carboxamide] | > 2 |

Same assay, conditions: Arabidopsis thaliana, 72 h; 300 ppm; 3rd day after spraying; mock treated leaves set as 1.00; read-out: relative fluorescence value

| SMILES | fold induction at 300 ppm |
| --- | --- |
| CCOC(=O)C(Cc1c[nH]c2ccccc12)NC(=O)c1sc(Cl)c(Cl)c1Cl (centres unmarked) [I.013] | > 2 |
| N#CCNC(=O)c1sc(Cl)c(Cl)c1Cl [I.025, 3,4,5-trichloro-N-(cyanomethyl)thiophene-2-carboxamide] | > 2 |
